In patent publication US20240254095A1, “NMDA Receptor Antagonist and Use Thereof” (priority 2021, published 2024):
Entries after “also recorded” stand apart in the source; their conditions may differ. Structures can show the parent of a compound that is named as a salt. Where two headings read alike, the source gives them in different places.

Tests used:
[1] = target: T1, human NMDA receptors GluN1 and GluN2A subunits (GluN2A-containing NMDAR) (Homo sapiens, UniProt Q05586+Q12879); experiment: cell-based
T1 construct: expressed in transfected cells; host or cells: HEK293 cells, transient liposome transfection of TRE-GluN1-GluN2A, tTA and pCAG-EGFP
Protocol: On the day before transfection, HEK293 cells were seeded in a 24-well plate with a 10 mm glass sheet, which was coated with polylysine in advance to increase the adhesion capacity of the cells. The plate was added with DMEM medium containing 10% FBS and incubated at 37° C., in 5% CO2 incubator. When the cell fusion reached 60%-70% after 18-24 hours, the plasmid cDNAs containing TRE-GluN1-GluN2A of human GluN1 and GluN2A, tTA, and pCAG-EGFP were transfected into HEK293 by liposome transfection (TRE-GluN1-GluN2A:tTA:pCAG-EGFP is 0.2 μg:0.2 μg:0.02 μg). Before transfection, anew DMEM medium was changed and added with 1 μg/mL Dox (doxycycline) to induce stable expression in the medium, and added with 100 μM D-APV and 10 mM MgCl2 to avoid cell excitatory toxicity caused by NMDAR overexpression. Cells with green fluorescence were selected for electrophysiological recording after transfection for about 24 h.
A glass plate seeded with HEK293 cells was placed in a recording bath and perfused with the extracellular fluid at a rate of 4 mL/min (NaCl 140 mM, KCl 2.8 mM, HEPES 10 mM, CaCl2 1 mM, glycine 0.1 mM, pH 7.2). The channels of the ALA-VC^3 eight-channel pressure perfusion system were filled with extracellular fluid for washing, extracellular fluid containing glutamic acid (100 μM), and extracellular fluid containing glutamic acid and compound to be tested, respectively, with a drop rate of about 1 drop/sec and 10 μL/drop. HEK293 cells with moderate green fluorescence intensity and good adhesion were selected under a fluorescence microscope for recording. The microglass tube of the perfusion system was placed about ten cells away from the cells to be recorded, and the drug was sprayed to the cell surface under the pressure of air (0.02 MPa). The glass electrode was prepared by drawing with a microelectrode drawing instrument with a resistance of 4-6 MΩ and filled with electrode liquid (CsCl 125 mM, HEPES 10 mM, EGTA 11 mM). The microelectrode manipulator was used to slowly push the glass electrode towards the cells. The electrode was attached to the cell membranes and applied with negative pressure, so that a high-resistance seal of more than 1 GΩ was formed between the electrode tip and the cell membrane, and then negative pressure was given to suck through the cell membrane to form a whole-cell recording mode. After the formation of whole-cell recording mode, the cell membrane potential was clamped at −70 mV. The extracellular fluid containing 100 μM glutamic acid, the extracellular fluid containing 100 μM glutamic acid and the compound to be tested, and the extracellular fluid were sprayed to the cell membrane surface sequentially through the perfusion system for 10 s, 20 s, and 10 s to record the NMDA receptor-mediated current and evaluate the inhibitory effect of the compound on GluN2A-containing NMDAR. The experimental process was controlled by pCLAMP 10.6, and the Digidata 1440A digital-to-analog converter was used to complete the generation of stimulus signal and the acquisition of feedback signal.
The ordinate in the figure is the normalized current ratio, which represents the ratio of the current mediated by NMDAR after administration of ketamine and the compound at a concentration of 10 μM to the current mediated by NMDAR before administration. […] Ketamine was used as a positive control.
The inhibitory percentages of the compound according to the present disclosure on NMDAR-mediated current=[…]/NMDAR mediated-current before administration*100%.

mice = experiment: High dose toxicity test (behavior of mice after i.p. administration); format: in vivo; design: key to Rodent Epileptiform Behavior Scale score (maximum): 0: No abnormal behavior; 1: Unsteady walking/reduced exercise ability/immobility; 2: Generalized clonus/trembling/writhing; 3: The tail is stiff/swinging; 4: Forelimb contractures; 5: Generalized spasms/convulsions; 6: Startle or running convulsive seizures; 7: Generalized tonic-clonic seizures; 8: dead; settings: for behavior during observation: observed about one hour; for Rodent Epileptiform Behavior Scale score (maximum): scale 0-8
Protocol: • 1. Experiments were performed in a quiet environment where animals needed to be weighed and acclimatized in the laboratory room for at least 30 min before the experiment. • 2. The compound to be tested was dissolved with 0.9% physiological saline at a concentration of 10 mg/ml. According to the body weight of mice, a corresponding volume of the compound was intraperitoneal injected (i.p.), so as to provide the target dose. • 3. The mice after administration were placed in transparent observation boxes, and the behavioral changes of the mice were recorded by video and observed for about one hour. (Note: During the observation period, if a mouse was lying still on the stomach, the mouse was turned over with your hand to check whether the righting reflex (RR) of the mouse disappeared. If it disappeared, the mouse was in the state of anesthesia, the time of anesthesia in the mouse was recorded). • 4. After one hour of observation, the mice were returned to the feeding cage and the observation boxes were wiped with 75% alcohol so that the information left over from the previous round (e.g. animal stool, urine and other odors) would not affect the next test results. Animals were replaced for the next round to continue the experiment.
Mice died after ketamine administration.
According to Rodent Epileptiform Behavior Scale score, Compound 9 induced epileptiform behavior in mice with a maximum score of 3. […] According to the Rodent Epileptiform Behavior Scale score. Compound 41 and 42 induced epileptiform behavior in mice with a maximum score of 1. […] The epileptiform behavior was scored according to the Rodent Epileptiform Behavior Scale score.

[2] = NMDAR-mediated current, HEK293 cells expressing human GluN1/GluN2A, 100 μM glutamic acid, clamped at −70 mV, compound 10 μM, read-out: current inhibitory percentages
[3] = high dose 150 mg/kg bw, formate, 150 mg/kg
[4] = medium dose 100 mg/kg body weight, formate, 100 mg/kg
[5] = medium dose 100 mg/kg body weight
[6] = medium dose 100 mg/kg body weight, hydrochloride, 100 mg/kg

T1 sequence (Q12879 23-1464, other chains not shown): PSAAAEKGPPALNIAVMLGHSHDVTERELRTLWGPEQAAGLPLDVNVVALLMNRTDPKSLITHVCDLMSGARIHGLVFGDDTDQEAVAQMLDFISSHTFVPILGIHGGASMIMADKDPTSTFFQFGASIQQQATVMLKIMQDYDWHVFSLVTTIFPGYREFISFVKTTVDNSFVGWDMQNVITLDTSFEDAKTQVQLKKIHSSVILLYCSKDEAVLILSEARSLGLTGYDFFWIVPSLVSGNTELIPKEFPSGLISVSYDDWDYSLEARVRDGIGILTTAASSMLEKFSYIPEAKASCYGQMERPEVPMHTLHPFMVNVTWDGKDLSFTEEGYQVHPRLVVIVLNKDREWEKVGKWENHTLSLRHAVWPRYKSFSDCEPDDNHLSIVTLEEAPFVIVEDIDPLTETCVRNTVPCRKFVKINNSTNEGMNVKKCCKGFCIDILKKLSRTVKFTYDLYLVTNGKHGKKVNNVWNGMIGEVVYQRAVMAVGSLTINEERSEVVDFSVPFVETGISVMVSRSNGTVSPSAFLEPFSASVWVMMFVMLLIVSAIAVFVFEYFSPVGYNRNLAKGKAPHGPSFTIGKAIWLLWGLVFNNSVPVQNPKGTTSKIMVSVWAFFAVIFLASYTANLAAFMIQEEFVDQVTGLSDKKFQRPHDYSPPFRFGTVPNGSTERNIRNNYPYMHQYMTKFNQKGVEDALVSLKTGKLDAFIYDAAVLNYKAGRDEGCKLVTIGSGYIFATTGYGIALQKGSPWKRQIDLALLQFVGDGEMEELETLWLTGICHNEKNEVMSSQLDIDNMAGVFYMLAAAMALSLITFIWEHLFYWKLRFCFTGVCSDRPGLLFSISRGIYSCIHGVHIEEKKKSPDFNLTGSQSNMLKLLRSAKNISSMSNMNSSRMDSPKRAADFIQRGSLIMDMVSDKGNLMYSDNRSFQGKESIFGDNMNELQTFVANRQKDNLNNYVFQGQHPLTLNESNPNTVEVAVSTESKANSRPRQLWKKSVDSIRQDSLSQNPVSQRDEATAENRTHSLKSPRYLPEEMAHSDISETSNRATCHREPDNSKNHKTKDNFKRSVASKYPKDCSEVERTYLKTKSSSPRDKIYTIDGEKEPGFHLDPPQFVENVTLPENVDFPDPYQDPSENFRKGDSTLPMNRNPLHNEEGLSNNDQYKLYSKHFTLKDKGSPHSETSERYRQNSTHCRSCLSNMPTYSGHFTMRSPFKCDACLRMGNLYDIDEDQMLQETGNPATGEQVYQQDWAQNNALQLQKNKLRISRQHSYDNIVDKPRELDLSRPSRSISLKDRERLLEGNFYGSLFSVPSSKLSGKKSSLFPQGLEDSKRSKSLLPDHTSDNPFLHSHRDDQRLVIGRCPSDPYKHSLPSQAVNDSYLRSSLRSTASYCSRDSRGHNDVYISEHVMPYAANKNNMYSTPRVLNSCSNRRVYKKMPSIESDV

Row | Compound | inhibition at 10 µM [1, 2] [%] | behavior during observation (mice; [3]) | behavior during observation (mice; [4]) | Rodent Epileptiform Behavior Scale score (maximum) (mice; [5]) | behavior during observation (mice; [6]) | further results
1 | Clc1cccc(C23CCCCC2OCCN3)c1 (racemic) [Compound 9, 4a-(3-chlorophenyl)octahydro-2H-benzo[b][1,4]oxazine formate] | 88.8 | the state of anesthesia of mice returned to normal after half an hour; also recorded: the state of anesthesia lasted for half an hour | intermittent shaky waking, lying still on the stomach, and tail stiffness (seizure for about 10 seconds); also recorded: Moderate epilepsy | 3 | – | –
2 | Clc1ccccc1C12CCCCC1OCCN2 (racemic) [Compound 11, 4a-(2-chlorophenyl)octahydro-2H-benzo[b][1,4]oxazine formate] | 85 | the activity reduction in mice lasted for half an hour before returning to normal | decreased activity; also recorded: Mild epilepsy | 1 | – | –
3 | Clc1cccc([C@]23CCCC[C@H]2OCCN3)c1 [Compound 41, (4aR,8aR)-4a-(3-chlorophenyl)octahydro-2H-benzo[b][1,4]oxazine hydrochloride] | 92.9 | – | – | – | slightly shaky walking; also recorded: Slight shaking | –
4 | Clc1cccc([C@@]23CCCC[C@@H]2OCCN3)c1 [Compound 42, (4aS,8aS)-4a-(3-chlorophenyl)octahydro-2H-benzo[b][1,4]oxazine hydrochloride] | 105 | – | – | – | slightly shaky walking; also recorded: Slight shaking | –
5 | Clc1ccccc1[C@@]12CCCC[C@@H]1OCCN2 [Compound 44, (4aS,8aS)-4a-(2-chlorophenyl)octahydro-2H-benzo[b][1,4]oxazine hydrochloride] | – | – | – | – | no obvious abnormalities; also recorded: No abnormal | –
6 | CNC1(c2ccccc2Cl)CCCCC1=O (stereo not shown) [Ketamine, reference compound] | – | – | – | – | – | inhibition at 10 µM ([1]; HEK293, read-out: current inhibitory percentages): 102%; behavior during observation (mice; high dose 150 mg/kg bw, 150 mg/kg): dead; behavior during observation (mice; high dose 150 mg/kg bw, listed as ketamine, 150 mg/kg): Mice died
